# Measured values as given in patent US10053431B2, “Tetrahydro-benzodiazepinones” (priority 2013, dated 2018).
# Where a name gives a salt, the structure may show the parent alone.
# Key:
# [1] = molecular target: BIR2 domain of XIAP (Homo sapiens (Human), UniProt P98170, C202A/C213G); assay: TR-FRET assay for BIR2 (inhibition of binding of XIAP BIR2 domain to SMAC-derived Peptide A); conditions: 6x His-tagged BIR2 domain (aa 124-240 of XIAP) 10 nM, Peptide A 20 nM, TR-FRET; read-out: IC50 BIR2
# [2] = molecular target: BIR3 domain of XIAP (Homo sapiens (Human), UniProt P98170); assay: TR-FRET assay for BIR3 (inhibition of binding of XIAP BIR3 domain to SMAC-derived Peptide A); conditions: 6x His-tagged BIR3 domain (aa 241-356 of XIAP) 10 nM, Peptide A 20 nM, TR-FRET
# BIR3 domain of XIAP, sequence (P98170 241-356 with tags or gaps limits assumed): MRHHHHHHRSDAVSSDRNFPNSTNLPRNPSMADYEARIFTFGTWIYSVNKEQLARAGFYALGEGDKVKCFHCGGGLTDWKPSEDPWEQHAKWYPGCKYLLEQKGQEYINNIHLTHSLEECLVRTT
# BIR2 domain of XIAP, sequence (P98170 124-240 with tags or gaps C202A/C213G limits assumed): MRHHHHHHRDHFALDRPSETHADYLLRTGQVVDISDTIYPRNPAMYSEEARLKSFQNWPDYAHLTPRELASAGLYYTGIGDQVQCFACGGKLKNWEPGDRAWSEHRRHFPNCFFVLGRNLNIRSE
Compound,IC50 [1],IC50 [2]
"CN[C@@H](C)C(=O)N[C@H]1CN(C(=O)c2ccc(NC(C)=O)cc2)c2ccccc2N(Cc2c(OC)ccc3ccccc23)C1=O [Example 42, (S)—N—[(S)-5-(4-Acetylamino-benzoyl)-1-(2-methoxy-naphthalen-1-ylmethyl)-2-oxo-2,3,4,5-tetrahydro-1H-benzo[b][1,4]diazepin-3-yl]-2-methylamino-propionamide hydrochloride]",37 nM,> 54800 nM
"CN[C@@H](C)C(=O)N[C@H]1CN(C(=O)c2ccc(C(C)=O)cc2)c2ccccc2N(Cc2c(OC)ccc3cc(C(=O)OC)ccc23)C1=O [Example 43, 5-[(S)-5-(4-Acetyl-benzoyl)-3-((S)-2-methylamino-propionylamino)-2-oxo-2,3,4,5-tetrahydro-benzo[b][1,4]diazepin-1-ylmethyl]-6-methoxy-naphthalen-2-carboxylic acid methyl ester hydrochloride]",57 nM,44100 nM
"CN[C@@H](C)C(=O)N[C@H]1CN(C(=O)c2ccc(C(C)=O)cc2)c2ccccc2N(Cc2c(OC)ccc3cc(C(=O)O)ccc23)C1=O [Example 44, 5-[[(3S)-1-(4-acetylbenzoyl)-3-[[(2S)-2-(methylamino)propanoyl]amino]-4-oxo-2,3-dihydro-1,5-benzodiazepin-5-yl]methyl]-6-methoxy-naphthalene-2-carboxylic acid; hydrochloride]",16 nM,17400 nM
"CN[C@@H](C)C(=O)N[C@H]1CN(C(=O)CCCC(C)=O)c2ccccc2N(Cc2c(OC)ccc3cc(C(=O)O)ccc23)C1=O [Example 47, 6-Methoxy-5-[(S)-3 ((S)-2-methylamino-propionylamino)-2-oxo-5-(5-oxo-hexanoyl)-2,3,4,5-tetrahydro-benzo[b][1,4]diazepin-1-ylmethyl]-naphthalene-2-carboxylic acid hydrochloride]",20 nM,44600 nM
"CN[C@@H](C)C(=O)N[C@H]1CN(C(=O)CCCNC(=O)OCC2c3ccccc3-c3ccccc32)c2ccccc2N(Cc2c(OC)ccc3cc(C(=O)OC)ccc23)C1=O [Example 48, 5-[(S)-5-[4-(9H-Fluoren-9-ylmethoxycarbonylamino)-butyryl]-3-((S)-2-methylamino-propionylamino)-2-oxo-2,3,4,5-tetrahydro-benzo[b][1,4]diazepin-1-ylmethyl]-6-methoxy-naphthalene-2-carboxylic acid methyl ester hydrochloride]",23 nM,33200 nM
"CN[C@@H](C)C(=O)N[C@H]1CN(C(=O)CCCN)c2ccccc2N(Cc2c(OC)ccc3cc(C(=O)OC)ccc23)C1=O [Example 49, 5-[(S)-5-(4-Amino-butyryl)-3-((S)-2-methylamino-propionylamino)-2-oxo-2,3,4,5-tetrahydro-benzo[b][1,4]diazepin-1-ylmethyl]-6-methoxy-naphthalene-2-carboxylic acid methyl ester hydrochloride]",127 nM,> 54800 nM
"CN[C@@H](C)C(=O)N[C@H]1CN2C(=O)CCCNC(=O)c3ccc4c(c(OC)ccc4c3)CN(C1=O)c1ccccc12 [Example 51, Cyclic-5-[(S)-5-(4-Amino-butyryl)-3-((S)-2-methylamino-propionylamino)-2-oxo-2,3,4,5-tetrahydro-benzo[b][1,4]diazepin-1-ylmethyl]-6-methoxy-naphthalene-2-carboxylic amide hydrochloride]",58 nM,42800 nM
"CN[C@@H](C)C(=O)N[C@H]1CN2C(=O)CCCCNC(=O)c3ccc4c(c(OC)ccc4c3)CN(C1=O)c1ccccc12 [Example 54, Cyclic-5-[(S)-5-(5-amino-pentanoyl)-3-((S)-2-methylamino-propionylamino)-2-oxo-2,3,4,5-tetrahydro-benzo[b][1,4]diazepin-1-ylmethyl]-6-methoxy-naphthalene-2-carboxylic amide hydrochloride]",18 nM,16000 nM
